From PubChem BioAssay (NCI)
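Grown in 96-well plates, cells were treated for 48 hours with each compound at five concentrations. Insufficient inhibition: endpoint recorded as highest concentration tested. GI50 = concentration required for 50% inhibition of growth. TGI marks complete inhibition of growth.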

Columns and labels:
Test in all cases: NCI-60 cell line screen, 48 h
NCI-H226 lung = test system: NCI-H226 lung
MDA-MB-435 = test system: MDA-MB-435
HS 578T breast = test system: HS 578T breast
HT29 colon = test system: HT29 colon
MALME-3M melanoma = test system: MALME-3M melanoma
NCI/ADR-RES ovarian = test system: NCI/ADR-RES ovarian
ACHN renal = test system: ACHN renal
COLO 205 colon = test system: COLO 205 colon
NCI-H460 lung = test system: NCI-H460 lung
OVCAR-5 ovarian = test system: OVCAR-5 ovarian
SF-268 CNS = test system: SF-268 CNS
SN12C renal = test system: SN12C renal
A549 NSCLC = test system: A549 NSCLC
SW-620 colon = test system: SW-620 colon
SNB-75 CNS = test system: SNB-75 CNS
HL-60(TB) leukemia = test system: HL-60(TB) leukemia
UACC-257 melanoma = test system: UACC-257 melanoma
OVCAR-8 ovarian = test system: OVCAR-8 ovarian
SNB-19 CNS = test system: SNB-19 CNS
UACC-62 melanoma = test system: UACC-62 melanoma
T-47D breast = test system: T-47D breast
MDA-MB-468 breast = test system: MDA-MB-468 breast
M14 melanoma = test system: M14 melanoma
SK-OV-3 ovarian = test system: SK-OV-3 ovarian
HCT-116 colon = test system: HCT-116 colon
U251 CNS = test system: U251 CNS
MDA-MB-231 breast = test system: MDA-MB-231 breast
PC-3 prostate = test system: PC-3 prostate
EKVX NSCLC = test system: EKVX NSCLC
KM12 colon = test system: KM12 colon
SR leukemia = test system: SR leukemia
MCF7 breast = test system: MCF7 breast
BT-549 breast = test system: BT-549 breast
MOLT-4 leukemia = test system: MOLT-4 leukemia
A498 renal = test system: A498 renal
OVCAR-3 ovarian = test system: OVCAR-3 ovarian
LOX IMVI melanoma = test system: LOX IMVI melanoma
HOP-92 NSCLC = test system: HOP-92 NSCLC
NCI-H23 lung = test system: NCI-H23 lung
RXF 393 renal = test system: RXF 393 renal
IGROV1 ovarian = test system: IGROV1 ovarian
HOP-62 NSCLC = test system: HOP-62 NSCLC
K-562 leukemia = test system: K-562 leukemia
786-0 renal = test system: 786-0 renal
TK-10 renal = test system: TK-10 renal
SF-539 CNS = test system: SF-539 CNS
HCT-15 colon = test system: HCT-15 colon
SK-MEL-28 melanoma = test system: SK-MEL-28 melanoma
HCC-2998 colon = test system: HCC-2998 colon
OVCAR-4 ovarian = test system: OVCAR-4 ovarian
RPMI-8226 leukemia = test system: RPMI-8226 leukemia
SK-MEL-5 melanoma = test system: SK-MEL-5 melanoma
SK-MEL-2 melanoma = test system: SK-MEL-2 melanoma
CCRF-CEM leukemia = test system: CCRF-CEM leukemia
CAKI-1 renal = test system: CAKI-1 renal
SF-295 CNS = test system: SF-295 CNS
UO-31 renal = test system: UO-31 renal
NCI-H522 lung = test system: NCI-H522 lung
DU-145 prostate = test system: DU-145 prostate

c1ccc(CSc2nnc(-c3ccc4nc(-c5ccccc5)[nH]c4c3)o2)cc1
GI50 (NCI-H226 lung): 12.6 µM
TGI (NCI-H226 lung): 37.4 µM
GI50 (MDA-MB-435): 12 µM
TGI (MDA-MB-435): 28.3 µM
GI50 (HS 578T breast): 18.8 µM
TGI (HS 578T breast): 57.2 µM
GI50 (HT29 colon): 6.24 µM
TGI (HT29 colon): > 100 µM
GI50 (MALME-3M melanoma): 12.5 µM
TGI (MALME-3M melanoma): 28.3 µM
GI50 (NCI/ADR-RES ovarian): 11.1 µM
TGI (NCI/ADR-RES ovarian): 37.3 µM
GI50 (ACHN renal): 14.3 µM
TGI (ACHN renal): 28 µM
GI50 (COLO 205 colon): 32.6 µM
TGI (COLO 205 colon): > 100 µM
GI50 (NCI-H460 lung): 12.3 µM
TGI (NCI-H460 lung): 27.5 µM
GI50 (OVCAR-5 ovarian): 24.1 µM
TGI (OVCAR-5 ovarian): 97.7 µM
GI50 (SF-268 CNS): 14.1 µM
TGI (SF-268 CNS): 38.8 µM
GI50 (SN12C renal): 12.1 µM
TGI (SN12C renal): 25.7 µM
GI50 (A549 NSCLC): 12 µM
TGI (A549 NSCLC): 28.7 µM
GI50 (SW-620 colon): 17.8 µM
TGI (SW-620 colon): 40.3 µM
GI50 (SNB-75 CNS): 10.8 µM
TGI (SNB-75 CNS): 24.8 µM
GI50 (HL-60(TB) leukemia): 24.2 µM
TGI (HL-60(TB) leukemia): > 100 µM
GI50 (UACC-257 melanoma): 23.6 µM
TGI (UACC-257 melanoma): 85.2 µM
GI50 (OVCAR-8 ovarian): 14.6 µM
TGI (OVCAR-8 ovarian): 30.4 µM
GI50 (SNB-19 CNS): 14.3 µM
TGI (SNB-19 CNS): 30 µM
GI50 (UACC-62 melanoma): 13.8 µM
TGI (UACC-62 melanoma): 31.4 µM
GI50 (T-47D breast): 3.6 µM
TGI (T-47D breast): 19.1 µM
GI50 (MDA-MB-468 breast): 7.57 µM
TGI (MDA-MB-468 breast): 27.7 µM
GI50 (M14 melanoma): 14.6 µM
TGI (M14 melanoma): 36.5 µM
GI50 (SK-OV-3 ovarian): 18.7 µM
TGI (SK-OV-3 ovarian): 48.5 µM
GI50 (HCT-116 colon): 11.9 µM
TGI (HCT-116 colon): 25.7 µM
GI50 (U251 CNS): 13.8 µM
TGI (U251 CNS): 29.8 µM
GI50 (MDA-MB-231 breast): 16.8 µM
TGI (MDA-MB-231 breast): 34.7 µM
GI50 (PC-3 prostate): 11.3 µM
TGI (PC-3 prostate): 32.3 µM
GI50 (EKVX NSCLC): 14.5 µM
TGI (EKVX NSCLC): > 100 µM
GI50 (KM12 colon): 29.4 µM
TGI (KM12 colon): > 100 µM
GI50 (SR leukemia): 22.4 µM
TGI (SR leukemia): > 100 µM
GI50 (MCF7 breast): 11.1 µM
TGI (MCF7 breast): 26.4 µM
GI50 (BT-549 breast): 12.8 µM
TGI (BT-549 breast): 30.2 µM
GI50 (MOLT-4 leukemia): 5.75 µM
TGI (MOLT-4 leukemia): > 100 µM
GI50 (A498 renal): 12.4 µM
TGI (A498 renal): 25.4 µM
GI50 (OVCAR-3 ovarian): 15.9 µM
TGI (OVCAR-3 ovarian): 33.6 µM
GI50 (LOX IMVI melanoma): 15.8 µM
TGI (LOX IMVI melanoma): 34 µM
GI50 (HOP-92 NSCLC): 13.3 µM
TGI (HOP-92 NSCLC): 39.9 µM
GI50 (NCI-H23 lung): 22.9 µM
TGI (NCI-H23 lung): 73.5 µM
GI50 (RXF 393 renal): 4.77 µM
TGI (RXF 393 renal): 22.6 µM
GI50 (IGROV1 ovarian): 20.4 µM
TGI (IGROV1 ovarian): 46 µM
GI50 (HOP-62 NSCLC): 20.2 µM
TGI (HOP-62 NSCLC): 44.8 µM
GI50 (K-562 leukemia): 8.05 µM
TGI (K-562 leukemia): > 100 µM
GI50 (786-0 renal): 8.83 µM
TGI (786-0 renal): 22.9 µM
GI50 (TK-10 renal): 14.8 µM
TGI (TK-10 renal): 29.7 µM
GI50 (SF-539 CNS): 11.3 µM
TGI (SF-539 CNS): 23.4 µM
GI50 (HCT-15 colon): 8.29 µM
TGI (HCT-15 colon): 28.8 µM
GI50 (SK-MEL-28 melanoma): 14.7 µM
TGI (SK-MEL-28 melanoma): 33 µM
GI50 (HCC-2998 colon): 34.8 µM
TGI (HCC-2998 colon): > 100 µM
GI50 (OVCAR-4 ovarian): 11.1 µM
TGI (OVCAR-4 ovarian): 23.3 µM
GI50 (RPMI-8226 leukemia): 7.03 µM
TGI (RPMI-8226 leukemia): > 100 µM
GI50 (SK-MEL-5 melanoma): 7.25 µM
TGI (SK-MEL-5 melanoma): > 100 µM
GI50 (SK-MEL-2 melanoma): 17 µM
TGI (SK-MEL-2 melanoma): 64.1 µM
GI50 (CCRF-CEM leukemia): 8.83 µM
TGI (CCRF-CEM leukemia): > 100 µM
GI50 (CAKI-1 renal): 10.5 µM
TGI (CAKI-1 renal): 22.2 µM
GI50 (SF-295 CNS): 10.4 µM
TGI (SF-295 CNS): 24 µM
GI50 (UO-31 renal): 11.3 µM
TGI (UO-31 renal): 23.7 µM
GI50 (NCI-H522 lung): 12.1 µM
TGI (NCI-H522 lung): 39 µM
GI50 (DU-145 prostate): 16.2 µM
TGI (DU-145 prostate): 37 µM
